# Publication PMC6332320, “Factors Influencing Oral Bioavailability of Thai Mango Seed Kernel Extract and Its Key Phenolic Principles” (Molecules, 2015)
# Like-named read-outs stand apart in the source and are kept apart here. Marks after values point to notes of the source that are not given here.
# Legend:
# [1] = Chemical stability in HBSS at pH 5, 6, 7 and 8; type: physicochemical
# Experimental: The chemical stability of GA, MG, PGG and MSKE was determined in HBSS at pH 5, 6, 7 and 8. The test compounds were added to HBSS to obtain the final concentrations (2 and 20 μM) for each standard compound or MSKE (0.25 mg/mL), which is equivalent to concentrations of 26.70 ± 1.35 µM GA, 4.90 ± 0.38 µM MG and 27.09 ± 8.01 µM PGG. The solutions at pH 5, 7 and 8 were then incubated in a water bath at 37 °C for 4 h, whereas the solutions at pH 6 were incubated for 8 h. Samples (200 μL) were collected at different time intervals (0, 1, 2, 3 and 4 h or 0, 1, 2, 4, 6 and 8 h) and then vortexed and centrifuged at 15,500 rpm for 15 min. The supernatant was injected into the UPLC for analysis. All experiments were performed in triplicate.
# The chemical and biological stabilities of the phenolic compounds were expressed as the concentration of the analyte at different time points relative to the concentration of the same analyte at time zero multiplied by 100 (% recovery).
# [2] = Caco-2 transepithelial transport experiment; type: in vitro ADME, human; settings: human
# Experimental: The transport experiment using Caco-2 monolayer was performed according to the criteria in our laboratory as previously reported with slight modification. Briefly, the cell monolayers were prepared by seeding 400,000 cells onto a polycarbonate insert, which has a surface area and pore size of 4.2 cm^2 and 3 μm, respectively (Nunc™, Thermo Fisher Scientific, Waltham, MA, USA). Cells were maintained in a humidified atmosphere at 37 °C (90% humidity and 5% CO2) and fed every other day. After 19 to 22 days post-seeding, the cell monolayers were used in the experiments. Before the experiment, the monolayers were quickly washed twice with pre-warmed HBSS at pH 7.4 (37 °C). The integrity of each monolayer was then verified by measuring the transepithelial electrical resistance (TEER) using a Millicell® ERS meter (Millipore, Bedford, MA, USA), and layers with TEER values less than 400 Ω/cm^2 relative to that of the blank insert were discarded. Then, the monolayers were incubated with the HBSS buffer at 37 °C for 1 h, and the incubation buffer was then aspirated. The test compounds were dissolved in HBSS at pH 6 to obtain final concentrations for the individual compounds (20 μM), mixture (20 μM) and MSKE (0.25 mg/mL), which were then loaded onto the A or B side (2.6 mL) as the donor side. A 2.6 mL aliquot of HBSS at pH 6 without the test compounds was loaded into the other side as the receiver side. After incubation at 37 °C, 0.6 mL of sample was collected from the receiver side at indicated times (60, 120, 180 and 240 min), and the same volume of receiver medium was replaced after each sampling. At the end of the experiment, the cells were washed twice with ice-cold HBSS at pH 6. The cells in each well were then collected and resuspended in 600 μL of HBSS at pH 6, and sonicated in an ice water bath at an output of 9 W for 30 min to obtain the cell lysates. The lysate was divided into the following aliquots: (1) 20 μL for quantitative protein assessment using a BCA™ protein assay kit and (2) 580 μL for quantitative test compounds. The samples collected from the transport study were stored at −20 °C until the UPLC or LC–MS/MS analysis. The experiments were performed in triplicate.
# The apparent permeability coefficient (Papp, cm/s) of each compound was calculated according to the following equation (Equation (1)): (1) Papp= dQ/dt×1/AC0 where dQ/dt is the compound permeation rate (nmol/s), A denotes the membrane surface area, and C0 is the initial concentration on the donor side (µM). The efflux ratio was calculated according to the following equation (Equation (2)): (2) Efflux ratio= Papp BA(mean)/Papp AB(mean) where Papp BA (mean) and Papp AB (mean) are the average apparent permeability coefficients of each compound from side B to side A, and from side A to side B, respectively.
# [3] = Excretion in urine and feces after oral administration in rats; type: in vivo, Sprague-Dawley rats; settings: for Total Mass in Feces (0−24 h) / Total Mass in Urine (0−24 h): p.o.; for dose excreted: Sprague-Dawley, rat, blood, urine and feces, oral, 0-24 h, read-out: % recovery (total mass recovery: blood + urine + feces / initial mass)
# Experimental: SD rats (five rats/group) were individually housed in stainless-steel metabolic cages, which allowed for the separation and collection of urine and feces. The rats were fasted overnight with ad libitum access to water prior to the day of the experiment. After a rat was anesthetized with isoflurane gas, the prepared suspension of test compound in an oral suspension vehicle was administered to the animals via oral gavage at a dose of 20 mg/kg for each compound in the mixture of MG and PGG or at 143 mg/kg MSKE, which is equivalent to approximate doses of 20 mg/kg PGG and 0.13 mg/kg MG. Subsequently, the rats’ tails were snipped near the tip to collect blood samples (approximately 50 µL), which were collected in heparinized tubes at 0, 0.50, 1, 2, 4, 6, 8 and 24 h. To investigate the excretion of phenolic compounds, urine and feces were collected between 0–24 h post-administration into tubes containing penicillin G (200 mg) and dry tubes, respectively, which were pre-weighted before use. After completing the pharmacokinetic study, the urine volume and dry feces weights were recorded, and all samples were stored at −80 °C until analysis.
# The blood and urine samples were prepared according to our previously reported methods. The fecal samples were prepared by adding 30 mL methanol to the sample, and the mixture was then vortexed and sonicated for 30 min to obtain the fecal lysates, which were extracted via the same method.
# The pharmacokinetic parameters of MG and PGG were calculated based on the non-compartmental method using WinNonlin 3.3 (Pharsight Corporation, Mountain View, CA, USA). The total mass of analytes was calculated according to the following equations (Equations (3)–(6)): The mass recovery (%) = (total mass in blood + total mass in urine + total mass in feces)/initial mass of analyte (3) Total mass in blood = C24h in blood × rat blood volume (70 mL/kg of body weight) (4) Total mass in urine = C0–24h in urine × volume of urine (0–24 h) (5) Total mass in feces = C0–24h in fecal lysate × volume of fecal lysate (30 mL) (6) where C24h in the blood is the concentration of analyte found in the blood sample at 24 h, and C0–24h in the urine and C0–24h in the fecal lysate are the concentrations of the analyte found in the urine and fecal samples, respectively, between 0 and 24 h.
# [4] = as principle in MSKE 0.25 mg/mL, pH 5, 6 or 7, 4 h
# [5] = as principle in MSKE 0.25 mg/mL, pH 6, 8 h
# [6] = as principle in MSKE 0.25 mg/mL, pH 8, 4 h
# [7] = individual compound 2 and 20 µM, pH 5 or 7, 4 h, 37 °C
# [8] = MSKE 143 mg/kg (20 mg/kg PGG and 0.13 mg/kg MG)
# [9] = mixture of MG and PGG 20 mg/kg each
SMILES,"chemical stability in HBSS [1, 4]","chemical stability in HBSS [1, 5]","chemical stability in HBSS [1, 6]","chemical stability in HBSS [1, 7]","Total Mass in Feces (0−24 h) [3, 8]","Total Mass in Urine (0−24 h) [3, 8]","Total Mass in Feces (0−24 h) [3, 9]","Total Mass in Urine (0−24 h) [3, 9]",also measured
"O=C(O)c1cc(O)c(O)c(O)c1 [GA, Gallic acid]",stable,moderately increased recovery,decomposed,only stable at pH 7,39.47 ± 17.44 ^b µg,54.54 ± 26.59 µg,9.64 ± 1.91 µg,42.95 ± 26.88 µg,"Papp A→B at 240 min ([2]; Caco-2, pH 6, Papp A to B): 1.46 ± 0.21 ×10⁻⁶ cm/s; Papp B→A at 240 min ([2]; Caco-2, pH 6, Papp B to A): 8.04 ± 0.43 ×10⁻⁶ cm/s; Papp B→A at 240 min, 20 µM ([2]; Caco-2, pH 6, Papp B to A): 1.02 ± 0.29 ×10⁻⁶ cm/s"
"COC(=O)c1cc(O)c(O)c(O)c1 [MG, methyl gallate]",increased recoveries,dramatically increased recoveries,slightly decreased recovery,only stable at pH 7,18.35 ± 10.14 ^b µg,9.81 ± 2.81 ^b µg,3.25 ± 1.73 µg,100.36 ± 74.67 µg,"Papp A→B at 240 min ([2]; Caco-2, pH 6, as principle in MSKE 0.25 mg/mL, HBSS pH 6, read-out: Papp A to B): 17.6 ± 1.54 ×10⁻⁶ cm/s; Papp B→A at 240 min ([2]; Caco-2, pH 6, as principle in MSKE 0.25 mg/mL, HBSS pH 6, read-out: Papp B to A): 11.3 ± 0.31 ×10⁻⁶ cm/s; efflux ratio at 240 min ([2]; Caco-2, pH 6, as principle in MSKE 0.25 mg/mL, Papp BA/Papp AB, read-out: Efflux Ratios): 0.66; efflux ratio at 240 min, 20 µM ([2]; Caco-2, pH 6, in mixture 20 μM, Papp BA/Papp AB, read-out: Efflux Ratios): 0.51; Papp A→B at 240 min, 20 µM ([2]; Caco-2, pH 6, in mixture of GA, MG, PGG 20 μM, HBSS pH 6): 12.5 ± 0.63 ×10⁻⁶ cm/s; Papp B→A at 240 min, 20 µM ([2]; Caco-2, pH 6, in mixture of GA, MG, PGG 20 μM, HBSS pH 6, read-out: Papp B to A): 6.33 ± 0.57 ×10⁻⁶ cm/s; Papp A→B at 240 min, 20 µM ([2]; Caco-2, pH 6, individual compound 20 μM, HBSS pH 6): 13.6 ± 0.4 ×10⁻⁶ cm/s; Papp B→A at 240 min, 20 µM ([2]; Caco-2, pH 6, individual compound 20 μM, HBSS pH 6, read-out: Papp B to A): 7.02 ± 1.11 ×10⁻⁶ cm/s; efflux ratio at 240 min, 20 µM ([2]; Caco-2, pH 6, individual compound 20 μM, Papp BA/Papp AB, read-out: Efflux Ratios): 0.52; dose excreted [3, 8]: 73.4 ± 30%; dose excreted [3, 9]: < 2%"
